Consider five compounds from ChEMBL document CHEMBL1201862, “PubChem BioAssay data set” (2004).

SMILES strings stand for the structures.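 Values below derive from 48-hour exposures of cells grown in 96-well plates, with endpoints linearly interpolated between the two concentrations bracketing the appropriate inhibition level. GI50 is the concentration that inhibits growth by half.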 Active and inactive are the calls of the source. Cut-off read from the data, not from the text of the source: active = GI50 up to about 1.1 µM and inactive = higher.

Common to all, as to test: inhibition of tumour cell growth, NCI panel, 48 h
Assay [1] concerns HOP-92.
The test system of assay [2] is SF-295.
For assay [3], the system named is NCI-H460.
The test system of assay [4] is HT-29.
The test system of assay [5] is NCI/ADR-RES.
Assay [6] concerns ACHN.
Assay [7] relates to SF-268.
Assay [8] concerns SK-OV-3.
The subject of assay [9] is UACC-62.
In assay [10] the test system is OVCAR-5.
Assay [11] concerns U-251.
The subject of assay [12] is K562.
For assay [13], the system named is RXF 393.
Assay [14] deals with SK-MEL-2.
For assay [15], the system named is EKVX.
Assay [16] deals with Malme-3M.
For assay [17], the system named is TK-10.
For assay [18], the system named is SW-620.

As to `CCOC(=O)c1c(-c2ccccc2)c(-c2ccccc2)cn1C`, the GI50 in assay [1] is > 10 µM (inactive); in assay [2] it was > 10 µM (inactive); in assay [3], > 10 µM (inactive); in [4] it was 8.67 µM (inactive); in assay [5], 5.82 µM (inactive); in assay [6], > 10 µM (inactive). Moreover, the GI50 in assay [7], in [8], in [9], in [10], in assay [11] and in assay [12] was > 10 µM (inactive) in each case. The GI50 was 3.93 µM (inactive) in [13]; 8.15 µM (inactive) in assay [14]; > 10 µM (inactive) in assay [15]; > 10 µM (inactive) in assay [16]; > 10 µM (inactive) in [17].
`O=C(c1ccccc1)[C@H]1Nc2ccc(Cl)cc2[C@H]2OCCC[C@@H]12`: the GI50 is 17 µM (inactive) in assay [2]; 18 µM (inactive) in [3]; 18.5 µM (inactive) in assay [4]; 31.3 µM (inactive) in assay [6]; 19 µM (inactive) in [7]; 17.8 µM (inactive) in assay [9]. Besides, the GI50 in assay [10] is 15.9 µM (inactive); in assay [11] it was 17.3 µM (inactive); in assay [12], 22.6 µM (inactive); in assay [18], 17.3 µM (inactive); in [13], 17.3 µM (inactive); in assay [14], 25.4 µM (inactive). For the same compound, the GI50 in assay [15] is 23.4 µM (inactive); in [16], 25.6 µM (inactive); in [17], 28.5 µM (inactive).
Take `COc1cc(C2C3=C(CCC3=O)Oc3cc4c(cc32)OCO4)cc(OC)c1OC` (stereo not given): the GI50 was 0.036 µM (active) in [1]; 0.109 µM (active) in [2]; 0.358 µM (active) in assay [3]; 0.279 µM (active) in [4]; 0.337 µM (active) in assay [6]; 0.28 µM (active) in assay [8]. Besides, the GI50 in assay [9] was 0.141 µM (active); in assay [10], 0.458 µM (active); in assay [11], 0.366 µM (active); in [12], 0.138 µM (active); in assay [18] it was 0.285 µM (active); in [13], 0.54 µM (active). Further, the GI50 in assay [15] was 0.422 µM (active); in assay [16], 1.44 µM (inactive); in assay [17], 0.417 µM (active).
As for `CCCCn1c(-c2ccc([N+](=O)[O-])cc2)cs/c1=N/N=C1\C(=O)Nc2ccc(Br)cc21`, the GI50 in [1] is 26 µM (inactive); in assay [2], 22.9 µM (inactive); in assay [3] it was 14.6 µM (inactive); in [4], 13.3 µM (inactive); in [5], 17.1 µM (inactive); in assay [6], 12.9 µM (inactive). For the same compound, the GI50 in [7] was 29.9 µM (inactive); in assay [8], 19.5 µM (inactive); in [9], 19.6 µM (inactive); in assay [10], 30.5 µM (inactive); in assay [11] it was 10.4 µM (inactive); in [12] it was 15.7 µM (inactive). Also, the GI50 in [18] is 39.6 µM (inactive); in assay [13] it was 8 µM (inactive); in assay [15], 24.7 µM (inactive); in [16], 28.3 µM (inactive); in assay [17] it was 12.3 µM (inactive).
In the case of `C=C1C(O)CC[C@]2(C)C1C1OC(C)(C)O[C@]13CC(=O)C(C)=C([C@H]1OC(C)(C)OC12)C3(C)C` (stereo not given in full), the GI50 in [2] is > 100 µM (inactive); in [3], > 100 µM (inactive); in assay [4], > 100 µM (inactive); in assay [5], > 100 µM (inactive); in [6] it was 92 µM (inactive); in [7], > 100 µM (inactive). Besides, the GI50 was > 100 µM (inactive) in assay [8]; > 100 µM (inactive) in assay [9]; > 100 µM (inactive) in assay [10]; > 100 µM (inactive) in assay [11]; 90.2 µM (inactive) in assay [12]; > 100 µM (inactive) in [18]. The GI50 in assay [13] is 27.4 µM (inactive); in assay [15], > 100 µM (inactive); in [16], > 100 µM (inactive); in assay [17], > 100 µM (inactive).
